Where a SMILES comes first, the peptide text is derived from it.
Biological target: T1, EcPBP3 (Escherichia coli, UniProt P0AD68)
T1 construct: For assays, selections and SPR a construct with residues 60–588 which has the N-terminal domain, but not the transmembrane helix, was used; made in house
Test: SPR binding assay on immobilised EcPBP3
Conditions: for Kd: 37 °C, kinetic fitting, NB = no binding at 2500 nM (Tables S-4, S-5) or 5000 nM (Table 1), read-out: Kd (nM) by SPR (geomean); for Improvement in binding affinity: hydrophobic extension of Trp6, relative to parent peptide
Experimental: Surface plasmon resonance (SPR) assays were performed using EcPBP3 immobilized on CM5 sensor chips (GE Healthcare) via amine-coupling chemistry in assay buffer (10 mM HEPES pH 8.0, 200 mM NaCl, 0.05% (v/v) surfactant P20). The chip surface was activated by injection (10 μL min^–1) of 0.4 M EDC and 0.1 M NHS (in a 1:1 ratio) with a 7 min contact time. Protein was diluted to 25 μg mL^–1 in 10 mM MOPS (pH 7.0) and injected over the activated sensor chip surface to reach immobilization of 1500-2500 response units. Excess hydroxysuccinimidyl groups on the chip surface were deactivated by injection (10 μL min^–1) of 1 M ethanolamine hydrochloride pH 8.0 with a 7 min contact time. Reference flow cells were prepared as described, but without ligand (EcPBP3 protein).
Binding analysis runs were performed at 37 °C in running buffer (10 mM HEPES pH 8.0, 200 mM NaCl, 0.05% (w/v) Tween-20, 2% (v/v) DMSO). Test compounds (and control runs of buffer only) were injected in running buffer over the EcPBP3 chip and reference flow cell, at flow rate of 50 μL min^–1 for 150 s contact time and 2400 s dissociation time. Each injection was followed by a wash with 50% (v/v) DMSO. All compounds were tested in at least two independent biological replicates unless otherwise stated.
Raw sensorgrams data were solvent-corrected, reference-subtracted and blank-buffer-subtracted (double-referencing) before kinetic and affinity analysis to account for non-specific binding and injection artifacts. Equilibrium dissociation constant (Kd) values was determined using the Biacore™ Insight Evaluation Software (version 4.0.8 or version 5.0.17) using kinetic fitting. Kd values presented are the geometric mean of at least two biological replicates.

T1 sequence (P0AD68 60-588): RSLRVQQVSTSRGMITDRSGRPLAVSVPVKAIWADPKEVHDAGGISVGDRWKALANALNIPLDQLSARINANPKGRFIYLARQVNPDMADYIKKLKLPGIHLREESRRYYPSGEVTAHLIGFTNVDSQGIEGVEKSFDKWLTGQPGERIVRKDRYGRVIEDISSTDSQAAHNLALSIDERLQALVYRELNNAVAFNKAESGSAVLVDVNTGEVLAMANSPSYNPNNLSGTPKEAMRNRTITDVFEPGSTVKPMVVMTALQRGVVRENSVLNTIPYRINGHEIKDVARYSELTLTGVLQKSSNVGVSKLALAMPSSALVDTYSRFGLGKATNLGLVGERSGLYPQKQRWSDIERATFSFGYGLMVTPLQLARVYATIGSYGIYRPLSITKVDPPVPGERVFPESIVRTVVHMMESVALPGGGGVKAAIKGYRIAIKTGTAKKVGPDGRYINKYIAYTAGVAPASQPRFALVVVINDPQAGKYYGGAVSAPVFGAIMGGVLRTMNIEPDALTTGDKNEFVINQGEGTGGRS

SMILES	Kd [nM]	Improvement in binding affinity
CC(C)[C@@H]1NC(=O)[C@H](Cc2c[nH]c3ccccc23)NC(=O)[C@@H]2CCCN2C(=O)[C@@H]2CSCCC(=O)N3CN(CN(C3)C(=O)CCSC[C@H](NC(=O)[C@H](C)N)C(=O)N[C@@H](CO)C(=O)N[C@@H](Cc3c(F)c(F)c(F)c(F)c3F)C(=O)N3CCC[C@H]3C(=O)N[C@@H](CCCCN)C(=O)N2)C(=O)CCSC[C@@H](C(=O)N[C@@H](C)C(N)=O)NC(=O)CNC(=O)[C@H](CCC(=O)O)NC1=O [Peptide 54]	701	
COc1ccc2[nH]cc(C[C@@H]3NC(=O)[C@@H]4CCCN4C(=O)[C@@H]4CSCCC(=O)N5CN(CN(C5)C(=O)CCSC[C@H](NC(=O)[C@H](C)N)C(=O)N[C@@H](CO)C(=O)N[C@@H](Cc5ccccc5)C(=O)N5CCC[C@H]5C(=O)N[C@@H](CCCCN)C(=O)N4)C(=O)CCSC[C@@H](C(=O)N[C@@H](C)C(N)=O)NC(=O)CNC(=O)[C@H](CCC(=O)O)NC(=O)[C@H](C(C)C)NC3=O)c2c1 [Peptide 63]	175	
C[C@H](N)C(=O)N[C@H]1CSCCC(=O)N2CN3CN(C2)C(=O)CCSC[C@H](NC(=O)[C@H](CCCCN)NC(=O)[C@@H]2CCCN2C(=O)[C@H](Cc2ccccc2)NC(=O)[C@H](CO)NC1=O)C(=O)N1CCC[C@H]1C(=O)N[C@@H](Cc1c[nH]c2ccccc12)C(=O)N[C@@H](C1CCC1)C(=O)N[C@@H](CCC(=O)O)C(=O)NCC(=O)N[C@H](C(=O)N[C@@H](C)C(N)=O)CSCCC3=O [Peptide 68] (HELM PEPTIDE1{A.C.S.F.P.K.C.P.W.[O=C([C@@H](N[*:1])C1CCC1)[*:2]].E.G.C.A.[am]}|CHEM1{[O=C(CC[*:1])N1CN(C(=O)CC[*:2])CN(C(=O)CC[*:3])C1]}$PEPTIDE1,CHEM1,2:R3-1:R1|PEPTIDE1,CHEM1,7:R3-1:R2|PEPTIDE1,CHEM1,13:R3-1:R3$$$V2.0)	187	
CC(C)[C@@H]1NC(=O)[C@H](Cc2c[nH]c3cc(Cl)ccc23)NC(=O)[C@@H]2CCCN2C(=O)[C@@H]2CSCCC(=O)N3CN(CN(C3)C(=O)CCSC[C@H](NC(=O)[C@H](C)N)C(=O)N[C@@H](CO)C(=O)N[C@@H](Cc3ccccc3)C(=O)N3CCC[C@H]3C(=O)N[C@@H](CCCCN)C(=O)N2)C(=O)CCSC[C@@H](C(=O)N[C@@H](C)C(N)=O)NC(=O)CNC(=O)[C@H](CCC(=O)O)NC1=O [Peptide 65]	0.269	More than 10 fold
CC(C)[C@@H]1NC(=O)[C@H](Cc2c[nH]c3ccccc23)NC(=O)[C@@H]2CCCN2C(=O)[C@@H]2CSCCC(=O)N3CN(CN(C3)C(=O)CCSC[C@H](NC(=O)[C@H](C)N)C(=O)N[C@@H](CO)C(=O)N[C@@H](C)C(=O)N3CCC[C@H]3C(=O)N[C@@H](CCCCN)C(=O)N2)C(=O)CCSC[C@@H](C(=O)N[C@@H](C)C(N)=O)NC(=O)CNC(=O)[C@H](CCC(=O)O)NC1=O [Peptide 17]	> 2500	
CC(C)[C@@H]1NC(=O)[C@H](Cc2c[nH]c3ccccc23)NC(=O)[C@@H]2CCCN2C(=O)[C@@H]2CSCCC(=O)N3CN(CN(C3)C(=O)CCSC[C@H](NC(=O)[C@H](C)N)C(=O)N[C@@H](CO)C(=O)N[C@@H](Cc3ccccn3)C(=O)N3CCC[C@H]3C(=O)N[C@@H](CCCCN)C(=O)N2)C(=O)CCSC[C@@H](C(=O)N[C@@H](C)C(N)=O)NC(=O)CNC(=O)[C@H](CCC(=O)O)NC1=O [Peptide 60] (HELM PEPTIDE1{A.C.S.[O=C([C@H](Cc1ccccn1)N[*:1])[*:2]].P.K.C.P.W.V.E.G.C.A.[am]}|CHEM1{[O=C(CC[*:1])N1CN(C(=O)CC[*:2])CN(C(=O)CC[*:3])C1]}$PEPTIDE1,CHEM1,2:R3-1:R1|PEPTIDE1,CHEM1,7:R3-1:R2|PEPTIDE1,CHEM1,13:R3-1:R3$$$V2.0)	122	
CC(C)[C@@H]1NC(=O)[C@H](Cc2c[nH]c3ccccc23)NC(=O)[C@@H]2CCCN2C(=O)[C@@H]2CSCCC(=O)N3CN(CN(C3)C(=O)CCSC[C@H](NC(=O)[C@H](C)N)C(=O)N[C@@H](CO)C(=O)N[C@@H](Cc3ccccc3F)C(=O)N3CCC[C@H]3C(=O)N[C@@H](CCCCN)C(=O)N2)C(=O)CCSC[C@@H](C(=O)N[C@@H](C)C(N)=O)NC(=O)CNC(=O)[C@H](CCC(=O)O)NC1=O [Peptide 56]	56.6	
CC(C)[C@@H]1NC(=O)[C@H](Cc2c[nH]c3ccccc23)NC(=O)[C@H](C)NC(=O)[C@@H]2CSCCC(=O)N3CN(CN(C3)C(=O)CCSC[C@H](NC(=O)[C@H](C)N)C(=O)N[C@@H](CO)C(=O)N[C@@H](Cc3ccccc3)C(=O)N3CCC[C@H]3C(=O)N[C@@H](CCCCN)C(=O)N2)C(=O)CCSC[C@@H](C(=O)N[C@@H](C)C(N)=O)NC(=O)CNC(=O)[C@H](CCC(=O)O)NC1=O [Peptide 20]	1380	
Cc1ccc(C[C@@H]2NC(=O)[C@H](CO)NC(=O)[C@@H](NC(=O)[C@H](C)N)CSCCC(=O)N3CN4CN(C3)C(=O)CCSC[C@H](NC(=O)[C@H](CCCCN)NC(=O)[C@@H]3CCCN3C2=O)C(=O)N2CCC[C@H]2C(=O)N[C@@H](Cc2c[nH]c3ccccc23)C(=O)N[C@@H](C(C)C)C(=O)N[C@@H](CCC(=O)O)C(=O)NCC(=O)N[C@H](C(=O)N[C@@H](C)C(N)=O)CSCCC4=O)cc1 [Peptide 58]	5.06	
CC(C)[C@@H]1NC(=O)[C@H](Cc2c[nH]c3ccccc23)NC(=O)[C@@H]2CCCN2C(=O)[C@@H]2CSCCC(=O)N3CN(CN(C3)C(=O)CCSC[C@H](NC(=O)[C@H](C)N)C(=O)N[C@@H](CO)C(=O)N[C@@H](Cc3ccncc3)C(=O)N3CCC[C@H]3C(=O)N[C@@H](CCCCN)C(=O)N2)C(=O)CCSC[C@@H](C(=O)N[C@@H](C)C(N)=O)NC(=O)CNC(=O)[C@H](CCC(=O)O)NC1=O [Peptide 59] (HELM PEPTIDE1{A.C.S.[O=C([C@H](Cc1ccncc1)N[*:1])[*:2]].P.K.C.P.W.V.E.G.C.A.[am]}|CHEM1{[O=C(CC[*:1])N1CN(C(=O)CC[*:2])CN(C(=O)CC[*:3])C1]}$PEPTIDE1,CHEM1,2:R3-1:R1|PEPTIDE1,CHEM1,7:R3-1:R2|PEPTIDE1,CHEM1,13:R3-1:R3$$$V2.0)	121	
C[C@H](N)C(=O)N[C@H]1CSCCC(=O)N2CN3CN(C2)C(=O)CCSC[C@H](NC(=O)[C@H](CCCCN)NC(=O)[C@@H]2CCCN2C(=O)[C@H](Cc2ccccc2)NC(=O)[C@H](CO)NC1=O)C(=O)N1CCC[C@H]1C(=O)N[C@@H](Cc1c[nH]c2ccccc12)C(=O)N[C@@H](C(C)(C)C)C(=O)N[C@@H](CCC(=O)O)C(=O)NCC(=O)N[C@H](C(=O)N[C@@H](C)C(N)=O)CSCCC3=O [Peptide 67] (HELM PEPTIDE1{A.C.S.F.P.K.C.P.W.[CC(C)(C)[C@H](N[*:1])C(=O)[*:2]].E.G.C.A.[am]}|CHEM1{[O=C(CC[*:1])N1CN(C(=O)CC[*:2])CN(C(=O)CC[*:3])C1]}$PEPTIDE1,CHEM1,2:R3-1:R1|PEPTIDE1,CHEM1,7:R3-1:R2|PEPTIDE1,CHEM1,13:R3-1:R3$$$V2.0)	574	
CC(C)[C@@H]1NC(=O)[C@H](Cc2cnc3ccccc3c2)NC(=O)[C@@H]2CCCN2C(=O)[C@@H]2CSCCC(=O)N3CN(CN(C3)C(=O)CCSC[C@H](NC(=O)[C@H](C)N)C(=O)N[C@@H](CO)C(=O)N[C@@H](Cc3ccccc3)C(=O)N3CCC[C@H]3C(=O)N[C@@H](CCCCN)C(=O)N2)C(=O)CCSC[C@@H](C(=O)N[C@@H](C)C(N)=O)NC(=O)CNC(=O)[C@H](CCC(=O)O)NC1=O [Peptide 62]	27	
Cc1ccccc1C[C@@H]1NC(=O)[C@H](CO)NC(=O)[C@@H](NC(=O)[C@H](C)N)CSCCC(=O)N2CN3CN(C2)C(=O)CCSC[C@H](NC(=O)[C@H](CCCCN)NC(=O)[C@@H]2CCCN2C1=O)C(=O)N1CCC[C@H]1C(=O)N[C@@H](Cc1c[nH]c2ccccc12)C(=O)N[C@@H](C(C)C)C(=O)N[C@@H](CCC(=O)O)C(=O)NCC(=O)N[C@H](C(=O)N[C@@H](C)C(N)=O)CSCCC3=O [Peptide 57]	22.3	
CC(C)[C@@H]1NC(=O)[C@H](Cc2c[nH]c3ccccc23)NC(=O)[C@@H]2CCCN2C(=O)[C@@H]2CSCCC(=O)N3CN(CN(C3)C(=O)CCSC[C@H](NC(=O)[C@H](C)N)C(=O)N[C@@H](CO)C(=O)N[C@@H](Cc3cccc(F)c3)C(=O)N3CCC[C@H]3C(=O)N[C@@H](CCCCN)C(=O)N2)C(=O)CCSC[C@@H](C(=O)N[C@@H](C)C(N)=O)NC(=O)CNC(=O)[C@H](CCC(=O)O)NC1=O [Peptide 55]	16.8	
CC(C)[C@@H]1NC(=O)[C@H](Cc2c[nH]c3ccccc23)NC(=O)[C@@H]2CCCN2C(=O)[C@@H]2CSCCC(=O)N3CN(CN(C3)C(=O)CCSC[C@H](NC(=O)[C@H](C)N)C(=O)N[C@@H](CO)C(=O)N[C@@H](CCc3ccccc3)C(=O)N3CCC[C@H]3C(=O)N[C@@H](CCCCN)C(=O)N2)C(=O)CCSC[C@@H](C(=O)N[C@@H](C)C(N)=O)NC(=O)CNC(=O)[C@H](CCC(=O)O)NC1=O [Peptide 61]	232	
CC(C)[C@@H]1NC(=O)[C@H](Cc2c[nH]c3cc(F)ccc23)NC(=O)[C@@H]2CCCN2C(=O)[C@@H]2CSCCC(=O)N3CN(CN(C3)C(=O)CCSC[C@H](NC(=O)[C@H](C)N)C(=O)N[C@@H](CO)C(=O)N[C@@H](Cc3ccccc3)C(=O)N3CCC[C@H]3C(=O)N[C@@H](CCCCN)C(=O)N2)C(=O)CCSC[C@@H](C(=O)N[C@@H](C)C(N)=O)NC(=O)CNC(=O)[C@H](CCC(=O)O)NC1=O [Peptide 66]	0.489	More than 10 fold

— PMC12120022, “Discovery and chemical optimisation of a potent, Bi-cyclic antimicrobial inhibitor of Escherichia coli PBP3” (Communications Biology, 2025)
